Test results: patent US20030104030A1, “Stent for blood vessel and material for stent for blood vessel” (priority 2002, published 2003)

Experiment: amount of tranilast in the stents, measured by high performance liquid chromatography
Type: physicochemical
Conditions: impregnation in stent with supercritical CO2, 40 to 140° C.
Protocol: In the experimental example 2, a plural number of luminal stents, formed of plural biodegradable polymer material, in particular plural fibers of biodegradable polymer, in which the drug was impregnated as the pressure and the temperature of CO2 were varied, were formed, and measurements were made of the amount of the drug for each of these stents.
Of the stents, obtained in Examples 14 to 25, the amount of tranilast was measured using a high performance liquid chromatography.

For `COc1ccc(C=CC(=O)Nc2ccccc2C(=O)O)cc1OC` [tranilast, N-(3,4-dimethoxycinnamoyl) anthranilic acid], the “thermal decomposition of drug during impregnation” value was “without undergoing thermal decomposition”.
